Test systems include ACHN; EKVX; HCT-15; HT-29; Hs-578T; IGROV-1; MDA-MB-231; MDA-MB-435; NCI-H460; NCI-H522; OVCAR-5; SF-539; SK-OV-3; T47D; TK-10; U-251; UACC-257; OVCAR-3; RPMI-8226; HCC 2998.
Assay in all cases: growth of human tumour cells (NCI), 48 h

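In this assay, cells in 96-well plates receive the compound at five concentrations for 48 hours. Endpoints are linearly interpolated between the surrounding concentrations. At the GI50, growth is halved.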 The source made the active and inactive calls. Cut-off read from the data, not from the text of the source: active = GI50 up to about 1.1 µM and inactive = higher.

Turning to `CCOC(=O)CC1CCN(C(=O)c2ccccc2)C2Cc3c([nH]c4ccccc34)C12C[N+](=O)[O-]` (centres undefined), the GI50 with ACHN was 67 µM (inactive); with EKVX it was > 100 µM (inactive); with HCT-15, 95.7 µM; with HT-29, 62.2 µM (inactive); in the assay on Hs-578T it was > 100 µM (inactive); in the assay on IGROV-1 it was 58.7 µM (inactive). Further, the GI50 with MDA-MB-231 is > 100 µM (inactive); with MDA-MB-435, 97.3 µM (inactive); with NCI-H460, 65.6 µM (inactive); in the assay with NCI-H522, > 100 µM (inactive); in the assay on OVCAR-5, > 100 µM (inactive); with SF-539, > 100 µM (inactive). The GI50 is > 100 µM (inactive) in the assay on SK-OV-3; 54.3 µM (inactive) in the assay on T47D; > 100 µM (inactive) in the assay with TK-10; 78.3 µM (inactive) in the assay with U-251; > 100 µM (inactive) in the assay on UACC-257.

With `COc1ccc(C2=CC(c3ccccc3)n3nnnc3N2)cc1` (centres undefined), the GI50 is > 100 µM (inactive) with ACHN; over 100 µM in the assay on HCT-15; > 100 µM (inactive) with HT-29; 76.9 µM (inactive) in the assay with Hs-578T; > 100 µM (inactive) in the assay on IGROV-1; > 100 µM (inactive) in the assay on MDA-MB-231. In addition, the GI50 is > 100 µM (inactive) in the assay with MDA-MB-435; > 100 µM (inactive) with NCI-H460; > 100 µM (inactive) with NCI-H522; > 100 µM (inactive) in the assay with OVCAR-3; > 100 µM (inactive) in the assay with OVCAR-5; 7.14 µM (inactive) with RPMI-8226. The GI50 with SF-539 is > 100 µM (inactive); with SK-OV-3 it was > 100 µM (inactive); with T47D, 56.9 µM (inactive); with U-251, 56 µM (inactive); with UACC-257, > 100 µM (inactive).

For `CCC1C2Cc3ccc(O)cc3C1(CC)CCN2C` (centres undefined), the GI50 in the assay with ACHN was > 100 µM (inactive); in the assay on EKVX, > 100 µM (inactive); in the assay on HCT-15, over 100 µM; in the assay on HT-29, > 100 µM (inactive); in the assay with Hs-578T, > 100 µM (inactive); in the assay with IGROV-1 it was > 100 µM (inactive). For the same compound, the GI50 in the assay with MDA-MB-231, in the assay with MDA-MB-435, in the assay with NCI-H460, in the assay on NCI-H522, with OVCAR-3 and with OVCAR-5 was > 100 µM (inactive) throughout. Also, the GI50 with RPMI-8226, in the assay with SF-539, with SK-OV-3, in the assay on T47D, in the assay with TK-10 and with U-251 was > 100 µM (inactive) in each case. In addition, the GI50 in the assay with UACC-257 was 77.3 µM (inactive).

For `O=c1[nH]c2ccccc2c(=O)n1/N=C\c1ccccc1O`, the GI50 in the assay on ACHN was > 100 µM (inactive); with EKVX, 22.8 µM (inactive); in the assay with HCT-15, over 100 µM; with HT-29, > 100 µM (inactive); in the assay on Hs-578T, 32.3 µM (inactive); in the assay with IGROV-1 it was > 100 µM (inactive). For the same compound, the GI50 in the assay on MDA-MB-231, in the assay on MDA-MB-435, in the assay on NCI-H460, with OVCAR-3, with OVCAR-5 and in the assay with RPMI-8226 was > 100 µM (inactive) throughout. Also, the GI50 in the assay with SF-539, with SK-OV-3, in the assay with T47D, with TK-10, with U-251 and in the assay on UACC-257 was > 100 µM (inactive) throughout.

Turning to `CC#CC#C/C=C1/O[C@]2(CCC(OC(=O)CC(C)C)CO2)[C@@H]2O[C@H]12` (some centres undefined), the GI50 in the assay on ACHN was 21 µM (inactive); in the assay with EKVX, 28.9 µM (inactive); in the assay with HCC 2998, 19.5 µM (inactive); in the assay on HCT-15, 21 µM; in the assay with HT-29, 18.2 µM (inactive); in the assay with Hs-578T it was 52.5 µM (inactive). The GI50 in the assay on IGROV-1 is 91.4 µM (inactive); in the assay with MDA-MB-231 it was 24 µM (inactive); with MDA-MB-435 it was 21.1 µM (inactive); with NCI-H460 it was 36.1 µM (inactive); in the assay with NCI-H522, 19.3 µM (inactive); in the assay on OVCAR-3 it was 21.5 µM (inactive). For the same compound, the GI50 in the assay with OVCAR-5 was 28.2 µM (inactive); in the assay with RPMI-8226 it was 19.7 µM (inactive); with SK-OV-3, > 100 µM (inactive); in the assay on T47D it was 20.5 µM (inactive); in the assay with TK-10, 25.7 µM (inactive); in the assay on U-251 it was 21.7 µM (inactive). In addition, the GI50 with UACC-257 was 30.3 µM (inactive).

Regarding `Cc1ccc(C(=O)CC(Cl)=C(Cl)Cl)cc1`, the GI50 in the assay with ACHN is > 100 µM (inactive); with HCT-15, 67.1 µM; in the assay with HT-29 it was > 100 µM (inactive); with Hs-578T, > 100 µM (inactive); in the assay with IGROV-1, > 100 µM (inactive); in the assay on MDA-MB-231 it was 98.2 µM (inactive). Besides, the GI50 is 55.7 µM (inactive) in the assay on MDA-MB-435; > 100 µM (inactive) in the assay with NCI-H460; 49.3 µM (inactive) with NCI-H522; 45.6 µM (inactive) with OVCAR-3; > 100 µM (inactive) in the assay on OVCAR-5; 29.2 µM (inactive) in the assay on RPMI-8226. The GI50 with SF-539 is > 100 µM (inactive); in the assay with SK-OV-3 it was > 100 µM (inactive); with T47D it was 50.6 µM (inactive); in the assay on TK-10, > 100 µM (inactive); with U-251, > 100 µM (inactive); in the assay on UACC-257, 65.9 µM (inactive).

Consider `Cc1cc(-c2nc3cc(F)c(F)cc3s2)ccc1N`, for which the GI50 was > 79.1 µM (inactive) in the assay on ACHN; > 79.8 µM (inactive) in the assay on EKVX; > 42.4 µM (inactive) with HCC 2998; over 61.4 µM in the assay on HCT-15; > 61.1 µM (inactive) in the assay on HT-29; 61.1 µM (inactive) with Hs-578T. The GI50 was > 100 µM (inactive) in the assay on MDA-MB-231; > 55.3 µM (inactive) in the assay with MDA-MB-435; > 100 µM (inactive) with NCI-H460; 48.6 µM (inactive) with NCI-H522; > 50.5 µM (inactive) in the assay with OVCAR-3; > 53.8 µM (inactive) in the assay on OVCAR-5. The GI50 with RPMI-8226 is > 63.4 µM (inactive); in the assay on SK-OV-3, > 64 µM (inactive); in the assay on T47D, < 0.015 µM (active); in the assay with TK-10, 0.0312 µM (active); in the assay on U-251, > 45.4 µM (inactive); with UACC-257 it was > 73.1 µM (inactive).

Consider `CC(C)=CCC[C@@H](C)C1=C(O)C(=O)C(C)=C(Nc2ccccc2F)C1=O`, for which the GI50 was 13.8 µM (inactive) in the assay with ACHN; 49.2 µM (inactive) with EKVX; 48.1 µM (inactive) with HCC 2998; 5.2 µM in the assay with HCT-15; 33.3 µM (inactive) in the assay with HT-29; 9.62 µM (inactive) in the assay with Hs-578T. Further, the GI50 is 32.6 µM (inactive) in the assay with IGROV-1; 28.4 µM (inactive) with MDA-MB-231; 36.7 µM (inactive) with MDA-MB-435; 12 µM (inactive) in the assay on NCI-H460; 4.1 µM (inactive) in the assay on OVCAR-3; 60.4 µM (inactive) in the assay with OVCAR-5. Also, the GI50 in the assay with RPMI-8226 is 8.26 µM (inactive); in the assay on SK-OV-3, 25.7 µM (inactive); in the assay with T47D, 14.6 µM (inactive); with TK-10, 29.9 µM (inactive); in the assay on U-251, 9.33 µM (inactive); with UACC-257 it was 21.9 µM (inactive).

Values taken from ChEMBL document CHEMBL1201862, “PubChem BioAssay data set” (2004).
